Values quoted from earlier work as cited in EP0023178A1, “Process for the preparation of concentrated solutions of amygdaline in its natural form” (SOMET, Société dite, priority 1979, dated 1981).

Details: water

**Q.** Which “solubilité dans l'eau” value does the source give for `N#CC(OC1OC(COC2OC(CO)C(O)C(O)C2O)C(O)C(O)C1O)c1ccccc1` (stereo not drawn) [amygdaline, D ou R mandélonitrile β-gentiobioside trihydraté] here?
**A.** Its value is 8-8,5%.
